Experimental data reported in publication PMC9295122, “Sialic Acid Derivatives Inhibit SiaT Transporters and Delay Bacterial Growth” (ACS Chemical Biology, 2022).

Biological target: T1, SiaT from P. mirabilis (Proteus mirabilis, UniProt B4EZY7)
T1 construct: made in house
Assay: biochemical
Assay type: biochemical
Conditions: for type of inhibition: PmSiaT, Lineweaver–Burk plot; for Ki: proteoliposome assay, Lineweaver–Burk, read-out: PmSiaT Ki
Protocol: To gain further insights into the molecular mechanisms, we investigated the direct effects of compounds 3e and 3f on the transport activity in proteoliposomes reconstituted with PmSiaT and SaSiaT. A kinetic analysis was performed by measuring the concentration-dependent uptake of [^3H]Neu5Ac in the presence of two different concentrations of the inhibitors 3f (Figure 5a,c) or 3e (Figure 5b,d).
Figure 5 Kinetic analysis of the inhibition of recombinant SiaT from P. mirabilis (A,B) and S. aureus (C,D) reconstituted in proteoliposomes and [^3H]Neu5Ac efflux in proteoliposomes (E,F). (a–d) Data were plotted according to Lineweaver–Burk as a reciprocal transport rate vs reciprocal Neu5Ac concentration. The transport rate was measured, in 5 min, by adding [^3H] Neu5Ac at the indicated concentrations to proteoliposomes containing 20 mM K^+-gluconate in the presence of valinomycin as described in the Supporting Information. [(A,B) P. mirabilis SiaT]; (A) compound 3f 0.25 μM (●) or 0.75 μM (□) was added in comparison to samples without inhibitor (○). (B) Compound 3e 12 μM (●) or 40 μM (□) was added in comparison to samples without an inhibitor (○). [(C,D) S. aureus SiaT]. (C) Compound 3f 80 μM (●) or 200 μM (□) was added in comparison to samples without an inhibitor (○). (D) Compound 3e 5 μM (●) or 12 μM (□) was added in comparison to samples without an inhibitor (○). Results are mean ± s.d. from four independent experiments (n = 4). […] Data are calculated as the percent of residual activity with respect to the control sample (efflux time zero). The results are the means ± s.d. of three independent experiments.
The purified SiaT from P. mirabilis and S. aureus was reconstituted by using the detergent removal procedure with the batchwise method previously pointed out.[16],[21] In brief, 2.5 μg or 5 μg of P. mirabilis and S. aureus SiaT, respectively, were mixed with 120 μL 10% C12E8, 100 μL of 10% egg yolk phospholipids (w/v, in the form of sonicated liposomes as previously described),[43] 20 mM of K^+-gluconate, and 20 mM Hepes Tris pH 7.0 in a final volume of 700 μL. The reconstitution mixture was incubated with 0.5 g Amberlite XAD-4 resin under rotatory stirring (1200 rpm) at 25 °C for 40 min.[44] The amount of reconstituted protein was estimated as previously described.[16]
For uptake experiments, 600 μL of proteoliposomes were loaded onto a Sephadex G-75 column (0.7 cm diameter × 15 cm height), pre-equilibrated with 20 mM Hepes Tris pH 7.0 with 40 mM sucrose to balance the internal osmolarity. Then, valinomycin (0.75 μg/mg phospholipid), prepared in ethanol, was added to the eluted proteoliposomes to generate a K^+ diffusion potential, as previously described. After 10 s of incubation with valinomycin, the transport was started by adding different concentrations of [^3H]-Neu5Ac (as indicated in the figures) to 100 μL proteoliposomes in the presence of 10 mM NaCl for P. mirabilis and 50 mM NaCl for S. aureus. For kinetic measurement, the initial transport rate was measured by stopping the reaction after 5 min, that is, within the initial linear range of [^3H]-Neu5Ac uptake into the proteoliposomes previously described. For efflux measurements, proteoliposomes were preloaded by incubation with [^3H]-Neu5Ac (as indicated in the figures) in the presence of 10 mM NaCl for P. mirabilis and 50 mM NaCl for S. aureus for 20 min. Efflux was started by adding 0.1 mM Neu5Ac or inhibitors to the preloaded proteoliposomes. In both uptake and efflux experiments, the transport assay was terminated by loading each proteoliposome sample (100 μL) on a Sephadex G-75 column (0.6 cm diameter × 8 cm height) to remove the external radioactivity. Proteoliposomes were eluted with 1 mL of 50 mM NaCl and collected in a 4 mL of scintillation mixture, vortexed and counted.

[1] = Neu5Ac transport by PmSiaT in proteoliposomes

T1 sequence (B4EZY7 whole entry): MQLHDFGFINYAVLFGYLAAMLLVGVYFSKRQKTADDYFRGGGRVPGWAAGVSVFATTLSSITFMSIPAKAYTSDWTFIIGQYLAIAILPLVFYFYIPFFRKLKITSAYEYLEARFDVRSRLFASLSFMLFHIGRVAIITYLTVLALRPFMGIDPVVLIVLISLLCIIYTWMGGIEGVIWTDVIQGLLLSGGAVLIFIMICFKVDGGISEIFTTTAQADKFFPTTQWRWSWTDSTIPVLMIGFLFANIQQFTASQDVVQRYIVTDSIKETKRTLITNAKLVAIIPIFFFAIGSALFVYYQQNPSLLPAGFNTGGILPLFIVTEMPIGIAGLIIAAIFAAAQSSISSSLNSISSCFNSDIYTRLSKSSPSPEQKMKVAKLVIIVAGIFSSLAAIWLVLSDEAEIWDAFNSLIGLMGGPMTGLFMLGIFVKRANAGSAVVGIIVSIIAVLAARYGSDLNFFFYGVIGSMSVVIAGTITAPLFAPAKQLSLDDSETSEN

In the case of CC(=O)NC1C(OCc2cc(F)cc(F)c2)CC(O)(C(=O)O)OC1C(O)C(O)CO (stereo not drawn) [Compound 3e], the type of inhibition is reported as “competitive inhibitors” and the Ki is reported as 9.9 ± 2.6 µM.
In the case of CC(=O)NC1C(OCc2cc(Br)cc(Br)c2)CC(O)(C(=O)O)OC1C(O)C(O)CO (stereo not drawn) [Compound 3f], the type of inhibition is reported as “competitive inhibitors” and the Ki is reported as 0.13 ± 0.04 µM.
For CC(=O)N[C@H]1[C@H]([C@H](O)[C@H](O)CO)OC(O)(C(=O)O)C[C@@H]1O (stereo partly drawn) [Neu5Ac, 5-N-acetyl neuraminic acid, reference compound], the Km [1] was 7.5 ± 1.6 µM and the Vmax [1] was 180 ± 56 nmol/mg protein/min.
